# Several values for one entry are separate records, joined by “and”; a condition that tells them apart may be missing. Equal entries are not always repeated. Where two headings read alike, the source gives them in different places.
# Assays:
# Assay type in all cases: cell-based, human
# MKP1 = assay: Real time RT-PCR of MKP1 mRNA in CSE-stimulated neutrophils from COPD patients; conditions: RNO 1 nM and 1 μM, DEX 1 μM, RNO 1 nM plus DEX 1 μM, NAC 1 mM for 1 h, then CSE 5% 6 h
# Experimental: (§1) Neutrophils and monocytes were isolated from peripheral venous blood by standard laboratory procedures. In brief, peripheral venous blood was mixed with dextran 500 at 3% (in 0.9% saline) in a proportion of 2:1. This mixture was incubated at room temperature for 30 min until erythrocytes were sedimented. The upper phase was carefully collected and added on Ficoll-Paque Histopaque 1077 (Amershan Pharmacia Biotech, Barcelona, Spain) density gradient in a proportion of 3:1. The two phases generated were centrifuged at 150 g, 4° C. for 30 min. […]
# (§2) CSE was prepared as previously outlined (Milara et al.; Ortiz et al.). […] The quality of the prepared CSE solution was assessed based on the absorbance at 320 nm, which is the specific absorption wavelength of peroxynitrite. Stock solutions with an absorbance value of 3.0±0.1 were used. […]
# (§3) Total RNA was obtained from isolated neutrophils under basal conditions or after different drug and stimulation periods defined above by using TriPure® Isolation Reagent (Roche, Indianapolis, USA). […] Relative quantification of these transcripts was determined with the 2^−ΔΔCt method using glyceraldehyde phosphate dehydrogenase (GAPDH) as endogenous control (Applied Biosystems; 4352339E) and normalized to control group as previously described (Milara et al., 2009).
# (§4) Then, mRNA was isolated and quantified for different genes.
# MIF = assay: Real time RT-PCR of MIF mRNA in CSE-stimulated neutrophils from COPD patients; conditions: RNO 1 nM and 1 μM, DEX 1 μM, RNO 1 nM plus DEX 1 μM, NAC 1 mM for 1 h, then CSE 5% 6 h
# Experimental: as §1, §2, §3, §4
# p-ERK1/2 = assay: Western blot of ERK1/2 phosphorylation in CSE-stimulated neutrophils from COPD patients; conditions: RNO 1 nM and 1 μM, DEX 1 μM, RNO 1 nM plus DEX 1 μM, NAC 1 mM for 1 h, then CSE 5% 20 min
# Experimental: as §1, §2
# Western blot analysis was used to detect changes in p-ERK1/2 (42-44 kD). […] Cells were then centrifuged and the total protein was extracted using a lysis buffer consisting of a complete inhibitor cocktail plus 1 mM ethylenediaminetetraacectic acid (Roche Diagnostics Ltd, West Sussex, UK) with 20 mM Tris base, 0.9% NaCl, 0.1% Triton X-100, 1 mM dithiothreitol and 1 μg mL^−1 pepstatin A. The Bio-Rad assay (Bio-Rad Laboratories Ltd., Herts, UK) was used (following manufacturer's instructions) to quantify the level of protein in each sample to ensure equal protein loading. […]
# PI3Kδ = assay: Real time RT-PCR of PI3Kδ expression in CSE-stimulated neutrophils from COPD patients; conditions: RNO 1 nM and 1 μM, DEX 1 μM, RNO 1 nM plus DEX 1 μM, NAC 1 mM, CSE 5%
# Experimental: as §1, §2, §3, §4
# HDAC2 = assay: Real time RT-PCR of HDAC2 expression in CSE-stimulated neutrophils from COPD patients; conditions: RNO 1 nM and 1 μM, DEX 1 μM, RNO 1 nM plus DEX 1 μM, NAC 1 mM, CSE 5%
# Experimental: as §1, §2, §3, §4
# intracellular ROS = assay: Intracellular reactive oxygen species (ROS) by flow cytometry in whole blood neutrophils from COPD patients; conditions: fMLP 1 μM or CSE 5%, 1 h, NAC 1 mM
# Experimental: Intracellular reactive oxygen species (ROS) were measured by a flow cytometry assay using 2′,7′-dichlorodihydrofluorescein diacetate (H2DCF-DA, Molecular Probes, UK) as previously outlined (Milara et al., 2010). H2DCF-DA was added for 15 min before stimulus to a final concentration of 5 μM to measure intracellular ROS. The bacterial peptide fMLP was added as stimulus at 1 μM […] to generate intracellular ROS (Elbim et al., 2001). In other experiments, to reproduce in vivo conditions, CSE 5% was added to generate intracellular ROS. Intracellular ROS was measured using fresh whole blood from COPD patients. Blood neutrophils were selected using CD16-Alexa Fluor 647 antibody (molecular probes, UK) as neutrophil marker, and CD14-PerCEP-Cy5.5 mouse antihuman (molecular probes, UK) as monocyte marker in an Epics Profile II flow cytometer. A total of 1 ml of whole blood was pre-incubated at 37° C. for 30 min with RNO ([…] (1 mM) and H2DCF-DA followed by fMLP 1 μM or CSE 5% stimulation for another 1 h. Then erythrocytes were lysed using a commercial erythrocyte lysis buffer (Biolegend, UK) for 10 min. Fluorescence intensity was measured in the polymorphonuclear region of whole blood in an Epics Profile II flow cytometer. Results were expressed as DCF fluorescence in relative fluorescence units (RFU).
# To this end, whole blood was stimulated with the bacterial peptide fMLP 1 μM or with CSE 5% in presence or absence of RNO or NAC for 1 h.
# IL-8 release = assay: LPS- or CSE-induced IL-8 release in isolated peripheral blood neutrophils (ELISA); conditions: for Maximal % Inhibition of IL-8 release / IC50: 6 h; for IC50: Homo sapiens, Neutrophil, read-out: -log IC50, inhibition of IL-8 release (converted)
# Experimental: (§5) Neutrophils and monocytes were isolated from peripheral venous blood by standard laboratory procedures. In brief, peripheral venous blood was mixed with dextran 500 at 3% (in 0.9% saline) in a proportion of 2:1. This mixture was incubated at room temperature for 30 min until erythrocytes were sedimented. The upper phase was carefully collected and added on Ficoll-Paque Histopaque 1077 (Amershan Pharmacia Biotech, Barcelona, Spain) density gradient in a proportion of 3:1. The two phases generated were centrifuged at 150 g, 4° C. for 30 min. Thus, the interface was collected to isolate monocytes, and the pellet obtained (which is consisted a mixture of neutrophils and low proportion of residual erythrocytes and traces of eosinophils and basophils) was resuspended in an erythrocyte lysis buffer (Biolegend, UK) for 5 min in ice. Cell suspension was washed two times with phosphate buffer (PBS).
# (§6) CSE was prepared as previously outlined (Milara et al.; Ortiz et al.). Briefly, the smoke of a research cigarette (2R4F; Tobacco Health Research, University of Kentucky, KY, USA) was generated by a respiratory pump (Apparatus Rodent Respirator 680; Harvard, Germany) through a puffing mechanism related to the human smoking pattern (3 puff/min; 1 puff 35 ml; each puff of 2 s duration with 0.5 cm above the filter) and was bubbled into a flask containing 25 ml of pre-warmed (37° C.) RPMI 1640 culture medium supplemented as describe above. The CSE solution was sterilized by filtration through a 0.22-μm cellulose acetate sterilizing system (Corning, N.Y.). The resultant CSE solution was considered to be 100% CSE and was used for experiments within 30 min of preparation. CSE 10% corresponds approximately to the exposure associated with smoking two packs per day (Su et al., 1998). The quality of the prepared CSE solution was assessed based on the absorbance at 320 nm, which is the specific absorption wavelength of peroxynitrite. Stock solutions with an absorbance value of 3.0±0.1 were used. To test for cytotoxicity from CSE, isolated neutrophils and monocytes were treated with CSE concentrations of up to 5% for 24.
# (§7) Peripheral neutrophil cell suspension was adjusted to 500×10^3 cells per well in 24-well plates and incubated in RPMI culture medium for 1 h into the incubator at 37° C., 5% CO2. […] Both the stimulus and drug were remained together for 6 h. Supernatants were collected and centrifuged at 120 g for 5 min, and the free-cell supernatant was used to measure IL-8, MMP-9, IL-1β, GM-CSF and CCL-5.
# (§8) IL-8 was determined by using commercially available enzyme-linked immunosorbent assay kit for IL-8 (R&D Systems, UK) according to the manufacturer's protocol. MMP-9, IL-1β, GM-CSF and CCL-5 were measured by LUMINEX technology according to the manufacturer's protocol.
# (§9) Data were presented as mean±SEM. IC50 values were calculated for each drug and their combinations. Statistical analysis of results was carried out by analysis of variance (ANOVA) followed by Bonferroni test, by Student's t test, or by non-parametric tests as appropriate (GraphPad Software Inc, San Diego, Calif., USA). Significance was accepted when P<0.05. For clinical correlations of lung function and gene expression from neutrophils the non-parametric Spearman correlation analysis was carried out.
# GCβ = assay: Real time RT-PCR of GCβ mRNA in CSE-stimulated neutrophils from COPD patients; conditions: RNO 1 nM and 1 μM, DEX 1 μM, RNO 1 nM plus DEX 1 μM, NAC 1 mM, CSE 5%
# Experimental: as §1, §2, §3, §4
# MMP-9 release = assay: LPS- or CSE-induced MMP-9 release in isolated peripheral blood neutrophils (LUMINEX); conditions: for Maximal % Inhibition of MMP-9 release / IC50: 6 h; for IC50: Homo sapiens, Neutrophil, read-out: -log IC50, inhibition of MMP-9 release (converted)
# Experimental: as §5, §6, §7, §8, §9
# IL-1β release = assay: LPS-induced IL-1β release in isolated peripheral blood neutrophils (LUMINEX); conditions: for IC50: Homo sapiens, Neutrophil
# Experimental: as §5, §7, §8, §9
# CCL-5 release = assay: LPS-induced CCL-5 release in isolated peripheral blood neutrophils (LUMINEX); conditions: for IC50: Homo sapiens, Neutrophil
# Experimental: as §5, §7, §8, §9
# [1] = COPD neutrophils stimulated with LPS or CSE, LY-294002 10 μM, NAC 1 mM
# [2] = LPS (1 μg/ml), 6 h, neutrophils from COPD patients
# [3] = LPS (1 μg/ml), 6 h, neutrophils from HEALTHY
# [4] = CSE 5%, neutrophils from COPD patients
# [5] = CSE 5%, neutrophils from HEALTHY
# [6] = LPS (1 μg/ml), neutrophils from COPD patients
# [7] = LPS (1 μg/ml), neutrophils from HEALTHY
structure (smiles),measurement,setting,value
"CC(=O)N[C@@H](CS)C(=O)O [NAC, N-acetyl-1-cysteine]",effect on CSE-induced down-regulation of MKP1 mRNA expression,MKP1,effectively increased
same,effect on CSE-induced increase of MIF mRNA expression,MIF,reduced
same,effect on CSE-induced phosphorylation of ERK1/2,p-ERK1/2,inhibited
same,effect on CSE-induced PI3Kδ upregulation,PI3Kδ,inhibited
same,effect on CSE-induced HDAC2 downregulation,HDAC2,inhibited
same,effect on ROS generation in neutrophils,intracellular ROS,inhibited
same,rescue of DEX anti-inflammatory effect on IL-8 release,IL-8 release; [1],able to rescue DEX anti-inflammatory effect
same,effect on CSE-induced GCβ upregulation,GCβ,inhibited
same,rescue of DEX anti-inflammatory effect on MMP-9 release,MMP-9 release; [1],able to rescue DEX anti-inflammatory effect
"C[C@@H]1C[C@H]2[C@@H]3CCC4=CC(=O)C=C[C@]4(C)[C@@]3(F)[C@@H](O)C[C@]2(C)[C@@]1(O)C(=O)CO [DEX, dexamethasone]",IC50,"IL-1β release; 6 h, LPS (1 μg/ml), 6 h, neutrophils from COPD patients, read-out: -log IC50, inhibition of IL-1β release (converted)",45.7 nM
same,IC50,"IL-1β release; 6 h, LPS (1 μg/ml), 6 h, neutrophils from HEALTHY, read-out: -log IC50, inhibition of IL-1β release (converted)",10.7 nM
same,IC50,"IL-1β release; LPS, neutrophils from COPD patients, read-out: -log IC50, IL-1β release (converted)",45.7 nM
same,IC50,"IL-1β release; LPS, neutrophils from healthy volunteers, read-out: -log IC50, IL-1β release (converted)",10.7 nM
same,Maximal % Inhibition of IL-1β release,IL-1β release; [2],77.16 ± 5.69%
same,Maximal % Inhibition of IL-1β release,IL-1β release; [3],79.58 ± 5.57%
same,Maximal % Inhibition of IL-8 release,IL-8 release; [4],20.6%
same,Maximal % Inhibition of IL-8 release,IL-8 release; [5],94.33 ± 21.7%
same,IC50,IL-8 release; [4],15.5 nM
same,IC50,IL-8 release; [5],17 nM
same,IC50,IL-8 release; [6],42.7 nM
same,IC50,IL-8 release; [7],47.9 nM
same,Maximal % Inhibition of IL-8 release,IL-8 release; [6],15%
same,Maximal % Inhibition of IL-8 release,IL-8 release; [7],67.08 ± 11.41%
same,IC50,"CCL-5 release; 6 h, LPS (1 μg/ml), 6 h, neutrophils from COPD patients, read-out: -log IC50, inhibition of CCL-5 release (converted)",32.4 nM
same,IC50,"CCL-5 release; 6 h, LPS (1 μg/ml), 6 h, neutrophils from HEALTHY, read-out: -log IC50, inhibition of CCL-5 release (converted)",7.24 nM
same,IC50,"CCL-5 release; LPS, neutrophils from COPD patients, read-out: -log IC50, CCL-5 release (converted)",32.4 nM
same,IC50,"CCL-5 release; LPS, neutrophils from healthy volunteers, read-out: -log IC50, CCL-5 release (converted)",7.24 nM
same,Maximal % Inhibition of CCL-5 release,CCL-5 release; [2],86.30 ± 10.16%
same,Maximal % Inhibition of CCL-5 release,CCL-5 release; [3],83.78 ± 8.64%
same,Maximal % Inhibition of MMP-9 release,MMP-9 release; [4],15.4% and 15.44 ± 6.95 %
same,Maximal % Inhibition of MMP-9 release,MMP-9 release; [5],83.9 ± 5.79%
same,IC50,MMP-9 release; [4],2.19 nM
same,IC50,MMP-9 release; [5],1.38 nM
same,IC50,MMP-9 release; [6],46.8 nM
same,IC50,MMP-9 release; [7],6.03 nM
same,Maximal % Inhibition of MMP-9 release,MMP-9 release; [6],8.8%
same,Maximal % Inhibition of MMP-9 release,MMP-9 release; [7],96.8 ± 5.1%

# Reference: patent publication US20150164916A1, “ROFLUMILAST COMPOSITIONS FOR THE TREATMENT OF COPD” (Forest Laboratories Holdings Ltd., priority 2012, published 2015)
